Values of other authors in patent publication US20240316057A1 (priority 2021, published 2024).

Key:
[1] = as known to the skilled person

SMILES | efficacious plasma concentration range [1] [µM] | solubility in water
Cn1c(=O)c2c(ncn2C)n(C)c1=O [Caffeine, 1,3,7-trimethylxanthine] | 5 to 20 | 
Cn1cnc2c1c(=O)[nH]c(=O)n2C [Theobromine, 3,7-dimethylxanthine] |  | very slightly water-soluble
